Results taken from PMC7614687, “Modulation of the substrate specificity of the kinase PDK1 by distinct conformations of the full-length protein*” (Science signaling, 2023).

Legend:
Type in all cases: binding
PDK1_50-359 = target: T1, PDK1_50-359 (Homo sapiens, UniProt O15530); test: Differential scanning fluorimetry, thermal stability of PDK1_50-359 (catalytic domain)
T1 construct: His (N); made in house; host or cells: insect cells (stated for the crystallography batch)
T1 sequence (O15530 50-359): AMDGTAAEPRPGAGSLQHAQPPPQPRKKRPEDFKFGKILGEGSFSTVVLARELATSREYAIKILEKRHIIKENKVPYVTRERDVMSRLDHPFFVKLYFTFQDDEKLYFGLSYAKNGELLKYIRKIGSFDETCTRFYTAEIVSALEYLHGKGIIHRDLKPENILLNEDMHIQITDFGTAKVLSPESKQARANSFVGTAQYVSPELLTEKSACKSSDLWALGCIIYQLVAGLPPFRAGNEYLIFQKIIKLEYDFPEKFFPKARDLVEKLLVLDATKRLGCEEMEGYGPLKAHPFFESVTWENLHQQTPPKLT
Experimental: The thermal stability of PDK1 was assessed by monitoring the unfolding of PDK1 by the increase in the fluorescence of SYPRO Orange (Invitrogen) using a real-time PCR device (StepOnePlus, Applied Biosystems and BioRad CFX96) following a previously described protocol ([70]). The reactions were performed in a final volume of 10 μl in white 96-well PCR microtiter plates (Greiner) and contained 1 μM PDK1, 10 mM HEPES (pH 7.5), 150 mM NaCl, 1/1000 SYPRO Orange and 1 mM dithiothreitol. For valsartan, the assay buffer was modified to exclude NaCl. PIFtide or compounds (at a final DMSO concentration of 1%) were added to this reaction mixture. The temperature gradient was performed in steps of 0.3 °C in the range from 25 to 70 °C. To calculate the Tm values, data were exported to GraphPad Prism and curves fitted to a Boltzmann sigmoidal equation with an acceptable confidence interval of 95%. Statistical analysis was performed with Infostat software (http://www.infostat.com.ar) and GraphPad Prism by first verifying a normal distribution of pooled residuals (Shapiro-Wilks test) and homogeneity of variance (F test), and then performing a one-way ANOVA followed by the post hoc comparisons test indicated in each figure legend.

GST-PDK1_1-556 = target: T2, GST-PDK1_1-556 (Homo sapiens, UniProt O15530); test: AlphaScreen GST-PDK1_1-556 / biotin-PIFtide interaction
T2 construct: made in house; host or cells: HEK293 cells (transient transfection of pEBG2T); peptide synthesized by Pepscan
T2 sequence (O15530 1-556): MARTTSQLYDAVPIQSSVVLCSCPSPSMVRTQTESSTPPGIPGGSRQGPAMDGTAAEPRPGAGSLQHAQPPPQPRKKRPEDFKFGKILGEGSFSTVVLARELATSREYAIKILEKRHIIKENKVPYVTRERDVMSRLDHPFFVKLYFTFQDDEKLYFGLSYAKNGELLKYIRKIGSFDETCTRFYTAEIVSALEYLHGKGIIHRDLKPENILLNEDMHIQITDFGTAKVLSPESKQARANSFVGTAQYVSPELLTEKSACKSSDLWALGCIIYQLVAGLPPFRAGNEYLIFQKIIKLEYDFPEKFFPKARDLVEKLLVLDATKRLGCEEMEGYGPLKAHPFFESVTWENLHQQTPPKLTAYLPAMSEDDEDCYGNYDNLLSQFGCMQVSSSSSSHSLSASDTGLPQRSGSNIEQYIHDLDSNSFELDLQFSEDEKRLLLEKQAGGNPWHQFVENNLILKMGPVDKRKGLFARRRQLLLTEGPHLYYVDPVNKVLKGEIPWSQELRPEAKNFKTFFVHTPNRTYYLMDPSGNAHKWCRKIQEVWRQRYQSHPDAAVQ
Experimental: The AlphaScreen® assay was performed following the general guidelines from the manufacturer (Perkin Elmer) ([29]). In short, the assay was performed in a final volume of 25 μl in white 384-well microtiter plates (Greiner) in a standard buffer containing 50 mM Tris-HCl (pH 7.4), 100 mM NaCl, 2 mM DTT, 0.01% (v/v) Tween-20 and 0.1% (w/v) BSA, with the addition of 5 μl of beads (anti-GST coated acceptor beads and streptavidin-coated donor beads; nickel chelate-coated acceptor beads and streptavidin-coated donor beads; or nickel chelate-coated acceptor beads and GSH-coated donor beads, 20 μg/ml final concentrations for each bead type). AlphaScreen assays for His-tagged proteins and GST-fusion proteins were performed using nickel chelate-coated acceptor beads and GSH-coated donor beads; alphascreen assays for His-tagged proteins and biotinylated molecules were performed using nickel chelate-coated acceptor beads and streptavidin-coated donor beads; alphascreen assays for GST-fusion proteins and biotinylated molecules were performed using anti-GST coated acceptor beads and streptavidin-coated donor beads (Perkin Elmer).
The interaction between GST-PDK1_1-556 and biotin-PIFtide was performed as described previously ([29], [32]) in the standard buffer, but the bead concentration was lowered to 15 μg/ml.

GST-PDK1_360-556 = target: T3, GST-PDK1_360-556 (Homo sapiens, UniProt O15530); test: AlphaScreen biotin-PIP3 / GST-PDK1_360-556 (linker-PH domain) displacement; settings: relative to 5 nM on GST-PDK1_1-556
T3 construct: GST-PDK1_360-556 (GST-PDK1-Linker-PH) was cloned into the BamHI-KpnI sites in pEBG2T plasmid; made in house; host or cells: HEK293 cells (transient transfection of pEBG2T)
T3 sequence (O15530 360-556): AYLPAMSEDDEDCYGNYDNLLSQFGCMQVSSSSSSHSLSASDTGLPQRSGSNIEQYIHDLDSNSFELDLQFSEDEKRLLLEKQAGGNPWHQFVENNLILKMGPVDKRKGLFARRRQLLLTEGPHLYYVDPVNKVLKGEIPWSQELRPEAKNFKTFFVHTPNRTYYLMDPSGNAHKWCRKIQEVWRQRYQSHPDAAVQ
Experimental: The AlphaScreen® assay was performed following the general guidelines from the manufacturer (Perkin Elmer) ([29]). In short, the assay was performed in a final volume of 25 μl in white 384-well microtiter plates (Greiner) in a standard buffer containing 50 mM Tris-HCl (pH 7.4), 100 mM NaCl, 2 mM DTT, 0.01% (v/v) Tween-20 and 0.1% (w/v) BSA, with the addition of 5 μl of beads (anti-GST coated acceptor beads and streptavidin-coated donor beads; nickel chelate-coated acceptor beads and streptavidin-coated donor beads; or nickel chelate-coated acceptor beads and GSH-coated donor beads, 20 μg/ml final concentrations for each bead type). […]
The conditions for each AlphaScreen assay were identified in cross-titration experiments for each interaction to choose the ideal pair of concentrations within the linear range of the interactions. […] His-PDK1 and GST-fusion protein in the presence or absence of the different compounds were incubated in the dark for 60 min at room temperature and the emission of light from the acceptor beads was measured in an EnVision reader (Perkin Elmer) or Spark plate reader (Tecan). […]
Biotin-PIP3 interactions with GST-PDK1_1-556 or GST-PDK1_360-556 were assessed in the standard buffer. […]

Row | effect on thermal stability of PDK1_50-359 (catalytic domain) (PDK1_50-359) | EC50 (GST-PDK1_1-556; approximate, read-out: EC50, increase of GST-PDK1_1-556 binding to PIFtide) [nM] | fold increase of binding of GST-PDK1_1-556 to PIFtide (GST-PDK1_1-556; different experiments) | fold higher concentration needed for similar displacement of PIP3 from GST-linker-PH domain than from GST-PDK1_1-556 (GST-PDK1_360-556) | SMILES
1 | without affecting | ~2.4 | 3-4 fold |  | O=C(O[C@H]1[C@@H](OP(=O)(O)O)[C@H](OP(=O)(O)O)[C@@H](OP(=O)(O)O)[C@H](OP(=O)(O)O)[C@H]1OP(=O)(O)O)c1ccccc1 [HYG8, 2-O-benzoyl-IP5]
2 |  |  |  | more than 1000 fold | CCCCO[C@H]1[C@@H](OP(=O)(O)O)[C@H](OP(=O)(O)O)[C@@H](OP(=O)(O)O)[C@H](OP(=O)(O)O)[C@H]1OP(=O)(O)O [HYG14, 2-O-butyl-IP5]
